PubChem BioAssay (NCI)
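Results reflect a 48-hour exposure of cells in 96-well plates to compound at five concentrations. Definition used: TGI = concentration required for complete inhibition of growth.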

Assays:
Assay in all cases: DTP human tumour cell line panel, 48 h
[1] = tested on: A498 renal
[2] = tested on: CCRF-CEM leukemia
[3] = tested on: EKVX NSCLC
[4] = tested on: HCC-2998 colon
[5] = tested on: K-562 leukemia
[6] = tested on: MALME-3M melanoma
[7] = tested on: MDA-N
[8] = tested on: SK-OV-3 ovarian
[9] = tested on: SR leukemia
[10] = tested on: TK-10 renal
[11] = tested on: UO-31 renal

SMILES	TGI [1] [µM]	TGI [2] [µM]	TGI [3] [µM]	TGI [4] [µM]	TGI [5] [µM]	TGI [6] [µM]	TGI [7] [µM]	TGI [8] [µM]	TGI [9] [µM]	TGI [10] [µM]	TGI [11] [µM]
C=CCCC1(CC(Sc2ccccc2)P(=O)(c2ccccc2)c2ccccc2)OCCO1 (stereo not drawn)	> 10	> 10	> 10	> 10	> 10	> 10	> 10	> 10	> 10	> 10	> 10
N#Cc1[nH]c(=O)n(-c2ccccc2)c1N	> 10	> 10	> 10	> 10	> 10	> 10	> 10	> 10	> 10	> 10	> 10
N#CCCC(CCC#N)(CCC#N)NO	–	–	> 100	–	> 100	> 100	> 100	> 100	> 100	> 100	> 100
CCCCC1Cc2ccccc2-c2nc3ccccc3n21 (stereo not drawn)	30.6	–	50	27.8	31.7	–	29.2	37.5	24.3	31.5	36.1
CC(C)=CCC(O)[C@](C)(O)[C@H]1[C@H](O)C[C@@]2(C)[C@@H]3CCc4cc(O)c(OC5OC(CO)C(O)C(O)C5O)cc4C3(C)C(=O)C[C@]12C (stereo partly drawn)	> 100	> 100	> 100	> 100	> 100	> 100	> 100	> 100	> 100	> 100	> 100
C[C@@H](c1ccccc1)n1c(N)c(C#N)c2ccc([N+](=O)[O-])cc2c1=O	24.4	33	–	39.4	26.1	–	78.4	–	12.2	24	24.1
O=[N+]([O-])c1ccc(S(=O)(=O)n2c3ccc(Br)cc3c3nc4ccccc4nc32)cc1	> 100	> 100	–	> 100	> 100	–	> 100	–	> 100	> 100	> 100
Cc1ccc2c(c1)CC1(Cc3ccccc3C1=O)C2=O (stereo not drawn)	> 100	> 100	> 100	> 100	> 100	> 100	> 100	> 100	> 100	> 100	> 100
CCCCCCCCCCCC(=O)OCC(C[As](=O)(O)O)OC(=O)CCCCCCCCCCC (stereo not drawn)	17.7	30.8	21	14	> 38.9	6.49	13	30.1	51.4	30.6	17.4
CN(C(=O)Cc1cccc(N=C=S)c1)[C@H]1CCCC[C@@H]1N1CCCC1	32.8	32.9	39.6	–	53.2	40.5	27.7	69.4	29.2	24.3	29.3
O=C1CC(c2cccc([N+](=O)[O-])c2)C2(C(=O)NC(=O)NC2=O)C(c2cccc([N+](=O)[O-])c2)C1 (stereo not drawn)	> 100	> 100	–	–	> 100	61.8	> 100	> 100	> 100	–	> 100
CCO/C=N\C1=C(C#N)SC2=N/C(=C\c3ccc(OC)cc3)C(=O)N21	> 100	> 100	> 100	> 100	> 100	> 100	> 100	> 100	> 100	> 100	> 100
CC(=O)OC1C(Oc2c(C)cc3c(c2O)[C@@H](C)CC[C@@H]3[C@@H](C)CCC=C(C)C)OCC(O)C1O (stereo partly drawn)	36.5	66.9	–	–	39.5	–	36	38.1	47.3	–	32.2
CO/C=C(/C(=O)OC)c1ccccc1COc1cccc(C(F)(F)F)c1	68.6	27.3	> 100	> 100	> 100	29.4	> 100	> 100	> 100	–	77
Cc1ccc2c3c1O[C@H]1c4[nH]c5ccccc5c4C[C@@]4(O)[C@@H](C2)N(CC2CC2)CC[C@]314	31.8	24.6	32.9	12.5	61.1	28.4	30.5	31.5	46.8	31.7	26.8
C[N+]1(C)CCc2cc(O)c(O)cc2C1Cc1ccc(O)c(O)c1 (stereo not drawn)	> 100	–	> 100	–	> 100	91.4	89.1	> 100	86.1	> 100	> 100
O=C(NCP(=O)(c1ccccc1)c1ccccc1)OCc1ccccc1	> 100	> 100	> 100	> 100	> 100	> 100	> 100	> 100	> 100	> 100	> 100
NNC(=S)N/N=C(/C(=O)Nc1ccc(Cl)c(Cl)c1)C(C1OC(=O)c2ccccc21)[N+](=O)[O-] (stereo not drawn)	> 100	> 100	> 100	> 100	> 100	> 100	> 100	> 100	–	> 100	> 100
COC(=O)C1=CS/C(=C2\S[C@@H]3[C@H](S2)[C@H]2C=C[C@@H]3C2)S1	> 100	> 100	–	–	18.5	> 100	> 100	> 100	> 100	> 100	> 100
Cc1ccc(S(=O)(=O)N/N=C2/CCCOC2)cc1	> 100	> 100	> 100	> 100	> 100	> 100	> 100	> 100	> 100	> 100	> 100
O=c1cc(N2CCCC2)[nH]c(=O)n1-c1cccc(Cl)c1	> 100	> 100	> 100	> 100	> 100	> 100	> 100	> 100	–	> 100	–

SMILES	TGI [1] [µM]	TGI [2] [µM]	TGI [3] [µM]	TGI [4] [µM]	TGI [5] [µM]	TGI [6] [µM]	TGI [7] [µM]	TGI [8] [µM]	TGI [9] [µM]	TGI [10] [µM]	TGI [11] [µM]
CC1(C)OC(=O)N(c2ccccc2)C12C=Cc1cc([N+](=O)[O-])ccc1O2 (stereo not drawn)	> 100	99	98.7	> 100	> 100	–	50.8	66.4	75.3	> 100	> 100
CCOC(C)O[C@H]1C(=O)OCC1(C)C (stereo partly drawn)	> 100	> 100	> 100	> 100	> 100	> 100	> 100	> 100	> 100	> 100	> 100
Cn1c([C@H](C#N)c2ncccc2[N+](=O)[O-])nc2ccccc21	> 100	> 100	> 100	> 100	> 100	> 100	> 100	> 100	> 100	> 100	> 100
CC(=O)[C@@H](C)C(=O)N1C(=O)OC[C@@]12[C@@H]1CC[C@@H](C1)C2(C)C	> 100	> 100	> 100	> 100	> 100	> 100	> 100	> 100	> 100	> 100	> 100
CC1S/C(=N\N=C2/C(=O)Nc3ccc(Br)cc32)N(C2CCCCC2)C1=O (stereo not drawn)	12.5	> 100	22.2	45	> 100	31.1	> 100	14	39.4	6.58	3.08
C/C(=N/NC(N)=S)c1ccc[nH]1	> 100	> 100	> 100	> 100	> 100	> 100	> 100	> 100	–	> 100	> 100
CCc1cc(Cc2cc(CC)c(NC(=O)C(=O)CC(=O)c3sc(-c4cccnc4)nc3C)c(CC)c2)cc(CC)c1NC(=O)C(=O)CC(=O)c1sc(-c2cccnc2)nc1C	> 100	> 100	> 100	> 100	> 100	> 100	> 100	> 100	–	–	> 100
O=C(N/N=C\C=C\c1ccc([N+](=O)[O-])o1)C(=O)N/N=C\C=C\c1ccc([N+](=O)[O-])o1	> 100	3.55	> 100	> 100	> 100	> 100	> 100	> 100	> 100	> 100	> 100
c1ccc(CNc2nncc3[nH]cnc23)cc1	> 100	> 100	> 100	> 100	> 100	> 100	> 100	> 100	> 100	> 100	> 100
CCOC(=O)c1cn2c(n1)sc1cc(Cl)ccc12	> 100	> 100	> 100	> 100	> 100	99.1	12.6	> 100	> 100	> 100	> 100
CCC(=O)Oc1ccc2c(c1)c(=O)c1c(NCCCN(C)C)ccc3nnn2c31	18.3	2.01	16.6	15	> 100	17	18.4	18.9	6.01	15.5	5.3
C(/C=C/Nc1ccc(Oc2ccccc2)cc1)=Nc1ccc(Oc2ccccc2)cc1	29.7	37	34.7	29.4	55.9	33.7	29.7	–	39.7	34.7	35
N#Cc1c(-c2ccccc2)[nH]c2ccc(Cl)cc2c1=O	–	> 100	> 100	> 100	> 100	> 100	> 100	> 100	> 100	90.6	44
CC(=O)Oc1ccc2cc(-c3ccccc3OC(C)=O)c(=O)oc2c1	> 100	60.6	> 100	> 100	> 100	> 100	> 100	–	> 100	–	28.4
CC(=O)ONC(C(=O)C(C)(C)C)C(=O)C(C)(C)C	> 100	> 100	> 100	> 100	> 100	> 100	> 100	> 100	–	> 100	> 100
CCOC1=NC(O)c2cccn2-c2sccc21 (stereo not drawn)	> 100	–	–	> 100	> 100	> 100	> 100	> 100	> 100	> 100	> 100
CCCc1c(O)nc(Nc2nc3ccccc3[nH]2)[nH]c1=O	> 100	> 100	> 100	–	> 100	> 100	> 100	> 100	> 100	> 100	> 100
COC(=O)c1cc2c(cc1CC(Cc1ccc3c(c1)CCCC3)C(=O)OC)CCCC2 (stereo not drawn)	> 100	> 100	–	93.8	> 100	> 100	> 100	> 100	> 100	> 100	> 100
CC(C)=C[C@H]1CCC2(OCCO2)[C@]1(C)COCc1ccccc1	66.7	34.5	> 100	37.4	–	> 100	> 100	> 100	–	> 100	> 100
Nc1nc(-c2ccccc2)cc(-c2ccc(OCc3ccccc3)cc2O)n1	> 100	> 100	> 100	> 100	> 100	> 100	> 100	–	> 100	91	> 100
O=c1c2ccccc2nc(Cc2nc(-c3ccc(Cl)cc3)cs2)n1-c1ccc(Cl)cc1	> 100	> 100	> 100	> 100	> 100	> 100	> 100	> 100	–	> 100	> 100
